Converted amounts (≈) assume the structure as drawn. The source made the active and inactive calls. No cut-off for these calls is given here.
How the values were obtained:
Escherichia coli [1] = experiment: Antimicrobial activity against Escherichia coli ATCC 10536 after 24 hrs by microplate assay; format: functional
Staphylococcus aureus [2] = experiment: Antimicrobial activity against Staphylococcus aureus ATCC 6538 after 24 hrs by microplate assay; format: functional
Pichia kudriavzevii [3] = experiment: Antimicrobial activity against Candida krusei ATCC 6258 assessed as minimum microbial concentration after 48 hrs by microplate assay; format: functional
Nakaseomyces glabratus [4] = experiment: Antimicrobial activity against Candida glabrata ATCC 90030 assessed as minimum microbial concentration after 48 hrs by microplate assay; format: functional
Candida tropicalis [5] = experiment: Antimicrobial activity against Candida tropicalis IP 2031 assessed as minimum microbial concentration after 24 hrs by microplate assay; format: functional
Candida albicans [6] = experiment: Antimicrobial activity against Candida albicans ATCC 2091 assessed as minimum microbial concentration after 24 hrs by microplate assay; format: functional
Staphylococcus aureus [7] = experiment: Antimicrobial activity against Staphylococcus aureus ATCC 6538 assessed as minimum microbial concentration after 24 hrs by microplate assay; format: functional
Candida albicans [8] = experiment: Antimicrobial activity against Candida albicans ATCC 2091 after 48 hrs by microplate assay; format: functional; conditions: ATCC 2091, 48 h
Candida tropicalis [9] = experiment: Antimicrobial activity against Candida tropicalis IP 2031 after 48 hrs by microplate assay; format: functional; conditions: IP 2031, 48 h
Nakaseomyces glabratus [10] = experiment: Antimicrobial activity against Candida glabrata ATCC 90030 after 48 hrs by microplate assay; format: functional; conditions: ATCC 90030, 48 h
Pichia kudriavzevii [11] = experiment: Antimicrobial activity against Candida krusei ATCC 6258 after 48 hrs by microplate assay; format: functional; conditions: ATCC 6258, 48 h
Escherichia coli [12] = experiment: Antimicrobial activity against Escherichia coli ATCC 10536 by disk diffusion method; format: functional
Pseudomonas aeruginosa [13] = experiment: Antimicrobial activity against Pseudomonas aeruginosa ATCC 15442 by disk diffusion method; format: functional
Staphylococcus aureus [14] = experiment: Antimicrobial activity against Staphylococcus aureus ATCC 6538 by disk diffusion method; format: functional
Enterococcus hirae [15] = experiment: Antimicrobial activity against Enterococcus hirae ATCC 10541 by disk diffusion method; format: functional
Candida albicans [16] = experiment: Antimicrobial activity against Candida albicans ATCC 2091 by disk diffusion method; format: functional
Candida tropicalis [17] = experiment: Antimicrobial activity against Candida tropicalis IP 2031 by disk diffusion method; format: functional
Nakaseomyces glabratus [18] = experiment: Antimicrobial activity against Candida glabrata ATCC 90030 by disk diffusion method; format: functional
Pichia kudriavzevii [19] = experiment: Antimicrobial activity against Candida krusei ATCC 6258 by disk diffusion method; format: functional
Escherichia coli [20] = experiment: Antimicrobial activity against Escherichia coli ATCC 10536 after 24 hrs assessed as minimum microbial concentration by microplate assay; format: functional
Pseudomonas aeruginosa [21] = experiment: Antimicrobial activity against Pseudomonas aeruginosa ATCC 15442 after 24 hrs by microplate assay; format: functional, organism-based
Enterococcus hirae [22] = experiment: Antimicrobial activity against Enterococcus hirae ATCC 10541 after 24 hrs by microplate assay; format: functional, organism-based

Compound | Activity (Staphylococcus aureus [7]) [µg/mL] | MIC (Staphylococcus aureus [2]; ATCC 6538, 24 h) [µg/mL] | MIC (Candida albicans [8]) [µg/mL] | MIC (Candida tropicalis [9]) [µg/mL] | MIC (Nakaseomyces glabratus [10]) [µg/mL] | MIC (Pichia kudriavzevii [11]) [µg/mL] | diameter of the inhibition zone (DIZ) (Escherichia coli [12]) | diameter of the inhibition zone (DIZ) (Pseudomonas aeruginosa [13]) | diameter of the inhibition zone (DIZ) (Staphylococcus aureus [14]) | diameter of the inhibition zone (DIZ) (Enterococcus hirae [15]) | diameter of the inhibition zone (DIZ) (Candida albicans [16]) | diameter of the inhibition zone (DIZ) (Candida tropicalis [17]) [mm] | diameter of the inhibition zone (DIZ) (Nakaseomyces glabratus [18]) | diameter of the inhibition zone (DIZ) (Pichia kudriavzevii [19]) | also measured
COLISTIN | – | – | – | – | – | – | – | – | – | – | – | – | – | – | MIC (Escherichia coli [1]): 8.12 µg/mL; MIC (Staphylococcus aureus [2]): 0.4 µg/mL
O=[N+]([O-])c1c(CBr)nc2sccn12 | 250 | 125 (≈ 477 µM) | 125 (≈ 477 µM) | 15.6 (≈ 59.5 µM) | 125 (≈ 477 µM) | 62.5 (≈ 238 µM) | 9 mm | 11 mm | 18 mm | 11 mm | 17 mm | 29 | 20 mm | 23 mm | Activity (Pichia kudriavzevii [3]): 62.5 µg/mL; Activity (Nakaseomyces glabratus [4]): 250 µg/mL; Activity (Candida tropicalis [5]): 15.6 µg/mL; Activity (Candida albicans [6]): 125 µg/mL
O=C1Nc2ccccc2C1(O)Cc1nc2sccn2c1[N+](=O)[O-] (stereo not drawn) | 500 | 500 (≈ 1510 µM) | 500 (≈ 1510 µM) | 62.5 (≈ 189 µM) | > 500 | > 500 | inactive | 9 mm | 10 mm | inactive | inactive | 8 | inactive | inactive | –
C[C@@H]1[C@H](O)[C@@H](C)/C=C/C=C/C=C/C=C/C=C/C=C/C=C/[C@H](O[C@@H]2O[C@H](C)[C@@H](O)[C@H](N)[C@@H]2O)C[C@@H]2O[C@](O)(C[C@@H](O)C[C@@H](O)[C@H](O)CC[C@@H](O)C[C@@H](O)CC(=O)O[C@H]1C)C[C@H](O)[C@H]2C(=O)O [AMPHOTERICIN B] | – | – | 0.16 (≈ 0.173 µM) | 12.5 (≈ 13.5 µM) | 0.31 (≈ 0.335 µM) | 0.62 (≈ 0.671 µM) | – | – | – | – | 22 mm | 8 | 22 mm | 18 mm | –
Cc1nc2sccn2c1[N+](=O)[O-] | – | – | > 500 | 31.2 (≈ 170 µM) | > 500 | > 500 | inactive | inactive | inactive | inactive | inactive | 8 | inactive | inactive | –
COC(=O)C(O)(Cc1nc2sccn2c1[N+](=O)[O-])C(F)(F)F (stereo not drawn) | – | – | – | 3.9 (≈ 11.5 µM) | – | – | inactive | inactive | inactive | inactive | inactive | 33 | inactive | inactive | –
CN1C(=O)C(O)(Cc2nc3sccn3c2[N+](=O)[O-])c2ccccc21 (stereo not drawn) | – | – | – | 125 (≈ 363 µM) | – | – | inactive | inactive | inactive | inactive | inactive | 12 | inactive | inactive | –
O=[N+]([O-])c1c(CCl)nc2sccn12 | 250 | 125 (≈ 574 µM) | 62.5 (≈ 287 µM) | 15.6 (≈ 71.7 µM) | 62.5 (≈ 287 µM) | 62.5 (≈ 287 µM) | 14 mm | 11 mm | 18 mm | 11 mm | 16 mm | 25 | 18 mm | 20 mm | Activity (Pichia kudriavzevii [3]): 62.5 µg/mL; Activity (Nakaseomyces glabratus [4]): 62.5 µg/mL; Activity (Candida tropicalis [5]): 15.6 µg/mL; Activity (Candida albicans [6]): 62.5 µg/mL; Activity (Escherichia coli [20]): 250 µg/mL; MIC (Escherichia coli [1]; ATCC 10536, 24 h): 125 µg/mL (≈ 574 µM)
CC(=O)N1C(=O)C(O)(Cc2nc3sccn3c2[N+](=O)[O-])c2ccccc21 (stereo not drawn) | 62.5 | 31.2 (≈ 83.8 µM) | – | 14 (≈ 37.6 µM) | – | – | inactive | inactive | 16 mm | inactive | inactive | 14 | inactive | inactive | –
CCOC(=O)/C=C/c1nc2sccn2c1[N+](=O)[O-] | – | – | – | 15.6 (≈ 58.4 µM) | – | – | inactive | inactive | inactive | inactive | inactive | 21 | inactive | inactive | –
GENTAMICIN | – | – | – | – | – | – | – | – | – | – | – | – | – | – | MIC (Pseudomonas aeruginosa [21]): 8.12 µg/mL; MIC (Enterococcus hirae [22]): 25 µg/mL; inhibition zone (IZ) (Escherichia coli [12]): 19 mm; inhibition zone (IZ) (Pseudomonas aeruginosa [13]): 19 mm; inhibition zone (IZ) (Staphylococcus aureus [14]): 20 mm; inhibition zone (IZ) (Enterococcus hirae [15]): 18 mm
